In publication PMC11984392, “EphA2-targeted alpha-particle theranostics for enhancing PDAC treatment” (Theranostics, 2025):
Values belong to the molecule of their own block, whether it stands above or below them. *1 amine or outer side, *2 acyl side, *3 side chain or, on linkers, in order; H or OH if unused. Where a SMILES comes first, the peptide text is derived from it. Bridges are numbered along the chain shown (N, C = ends). [ ]: non-standard residue; d: D form. The star is where a group is joined. DOTA = O=C(O)CN1CCN(CC(=O)O)CCN(CC(=O)*)CCN(CC(=O)O)CC1; TATA = O=C(CC[*:1])N1CN(C(=O)CC[*:2])CN(C(=O)CC[*:3])C1; NOTA = O=C(O)CN1CCN(CC(=O)O)CCN(CC(=O)*)CC1; Hyp = O=C(O)[C@@H]1C[C@@H](O)CN1; hArg = N=C(N)NCCCC[C@H](N)C(=O)O; PEG2 = NCCOCCOCCC(=O)O; Sar = CNCC(=O)O

What was measured:
mouse EphA2 = biological target: T1, mouse EphA2 (Mus musculus, UniProt Q03145); assay: SPR binding affinity (Biacore T200, CM5 chip); details: 25 °C, HBS-P + 0.1% DMSO, 1:1 kinetics model
T1 construct: purchased SinoBiological 50586-M08H
T1 sequence (Q03145 26-535 limits assumed): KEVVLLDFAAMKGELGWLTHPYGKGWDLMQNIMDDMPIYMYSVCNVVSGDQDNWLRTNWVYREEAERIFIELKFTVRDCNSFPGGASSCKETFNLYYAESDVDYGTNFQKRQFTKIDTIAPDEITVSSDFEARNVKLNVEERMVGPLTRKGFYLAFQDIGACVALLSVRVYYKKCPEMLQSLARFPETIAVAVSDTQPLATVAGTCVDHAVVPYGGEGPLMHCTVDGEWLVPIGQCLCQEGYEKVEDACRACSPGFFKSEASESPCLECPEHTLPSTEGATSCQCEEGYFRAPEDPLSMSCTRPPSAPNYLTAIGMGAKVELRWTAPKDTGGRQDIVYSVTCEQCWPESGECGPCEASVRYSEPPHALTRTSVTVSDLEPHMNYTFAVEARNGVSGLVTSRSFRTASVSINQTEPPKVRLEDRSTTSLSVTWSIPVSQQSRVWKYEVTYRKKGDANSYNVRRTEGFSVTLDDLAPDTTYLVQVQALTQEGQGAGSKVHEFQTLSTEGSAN
Method: (§1) All experiments were conducted using a Biacore T200 instrument (GE Healthcare Life Sciences) with a CM5 chip at 25 °C. His-tagged human EphA2 (R&D systems, catalog # 3035-A2, 56.9 kDa, 4.46 μM stock concentration) and mouse EphA2 (SinoBiological, cat.# 50586-M08H, 58 kDa, 8.6 μM stock concentration) were immobilized onto the CM5 chip. AJ201 (3328.8 Da, 10 mM stock concentration) and AJ210 (3072.5 Da, 10 mM stock concentration) were used as analyte to flow over the ligand immobilized surface. Flow Cell (FC) 1 was used as the reference for FC2, FC3 for FC4. Anti-His antibody (2 mg/ml stock concentration) was diluted (1:100 dilution, 0.02 mg/ml diluted concentration) in 10 mM sodium acetate buffer at pH 4.5 and immobilized on all FCs to a level of ~8000 to 11000 RU using the standard amine coupling chemistry. HBS-P (10 mM HEPES pH 7.4, 150 mM NaCl, 0.05% v/v surfactant P20) was used as the immobilization running buffer. Human EphA2 was diluted (1:5 dilution) in HBS-P captured onto FC2 to a level of ~750 RU. Mouse EphA2 was diluted (1:10 dilution) in HBS-P captured onto FC4 to a level of ~750 RU. HBS-P was used as the capture running buffer. The Rmax values assume 1:1 interaction mechanism. Overnight kinetics were performed for all analytes in the presence of HBS-P+0.1% DMSO. The flow rate of all analyte solutions was maintained at 50 μL/min. The contact and dissociation times used were 120s and 600s, respectively. Glycine solution (pH 1.5) was injected for 15 s for surface regeneration and fresh ligands were captured in the beginning of each injection cycle. Sensorgrams from the overnight kinetics was evaluated by using 1:1 kinetics model fitting.

human EphA2 = biological target: T2, human EphA2 (Homo sapiens, UniProt P29317); assay: SPR binding affinity (Biacore T200, CM5 chip); details: 25 °C, HBS-P + 0.1% DMSO, 1:1 kinetics model
T2 construct: purchased R&D systems 3035-A2
T2 sequence (P29317 25-534 limits assumed): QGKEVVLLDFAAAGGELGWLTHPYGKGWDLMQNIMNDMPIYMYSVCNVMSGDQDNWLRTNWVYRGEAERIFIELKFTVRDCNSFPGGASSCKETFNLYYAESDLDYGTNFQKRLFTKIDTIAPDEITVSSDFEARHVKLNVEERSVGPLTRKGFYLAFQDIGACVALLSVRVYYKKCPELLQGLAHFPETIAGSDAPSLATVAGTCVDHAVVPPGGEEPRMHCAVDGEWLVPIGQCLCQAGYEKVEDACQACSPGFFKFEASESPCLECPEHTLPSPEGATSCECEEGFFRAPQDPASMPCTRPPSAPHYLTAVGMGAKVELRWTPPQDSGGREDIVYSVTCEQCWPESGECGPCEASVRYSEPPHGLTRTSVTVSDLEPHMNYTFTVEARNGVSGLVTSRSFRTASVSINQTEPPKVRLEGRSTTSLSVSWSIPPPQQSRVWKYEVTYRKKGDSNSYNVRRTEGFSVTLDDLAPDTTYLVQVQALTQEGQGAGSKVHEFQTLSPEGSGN
Method: as §1

Ex vivo biodistribution [1] = format: in vivo, mice; details: mouse, in vivo, 50 uCi, total radioactivity
Method: (§2) Mice with 100-200 mm^3 tumor volume were used for ex vivo biodistribution studies. For radiotracer pharmacokinetics and dosimetry studies, mice with Panc1 tumor xenograft received ~80 µCi (2.96 MBq) [^68Ga]AJ201 and were sacrificed at pre-determined time points (5, 30, 60, 90 and 120 min). All other mice were injected with ~50 µCi (1.85 MBq; 0.2 to 0.5 nmol) Ga-68 labeled radiotracer and were sacrificed at 60 min. The selected tissues were collected, weighed, counted, and their %ID/g values calculated for biodistribution analysis. For pharmacokinetics and dosimetry studies, selected tissues included blood, muscle, tumor, thymus, heart, lung, liver, pancreas, stomach, small intestine, large intestine, spleen, adrenals, kidney, bladder, femur, brain and tumor xenografts. For other studies, selected tissues were blood, muscle, tumor, heart, lung, liver, pancreas, small intestine, spleen, kidney.

Ex vivo biodistribution [2] = assay: Ex vivo biodistribution; design: species or system NSG mice; details: both sexes, NSG, mouse, in vivo, 50 uCi, total radioactivity
Method: Animal studies were performed under Johns Hopkins University Animal Care and Use Committee (ACUC)-approved protocol (Principal investigator: Sridhar Nimmagadda, Ph.D. and Protocol number M021M175). Male and Female NSG mice (5-6 weeks old) were purchased from JHU immunocompromised core and used to establish xenografts by administering cells subcutaneously (top right flank, unless otherwise noted) to form various tumor models within 3-4 weeks. Following cell numbers were used: Panc1, AsPC1, BxPC3 (1 M), Hs766T and SU8686 (2 M), CFPAC and Panc1005 (5 M). Imaging or biodistribution studies (n = 3-5) were conducted on mice with tumor volumes of 100-200 mm^3. The Panc1 orthotopic tumor model was established by surgically implanting a 3-5 mm^3 section of Panc1 tumor xenograft directly onto the pancreas. The implanted tumors were allowed to grow and were ready for imaging after 10 days of implantation.
as §2

[3] = design: species or system C57BL/6 mice; details: mouse, in vivo
Method: Male C57BL/6 mice (5-6 weeks old) were used to establish syngeneic tumor by administering KPC cells subcutaneously in top right flank. For this study, 0.5 million cells were inoculated subcutaneously into the upper flank of each animal. Tumor growth was closely monitored, and once tumors became palpable, their volumes were measured using a vernier caliper. Animals were then randomized into groups to ensure balanced baseline tumor sizes, with median volumes of approximately 60 mm^3 (PBS group median: 60 mm^3; radiotherapeutic group median: 57 mm^3). Following randomization, two subsequent doses of 0.5 µCi of [^225Ac]AJ210 were administered intravenously with the interval of 24 h. Similarly, saline was administered in the control group. Measurements of tumor volume and body weight were conducted in alternative days until the end of study. Blood was collected retro-orbitally at 3-, 7- and 28-days post radiotherapy injection and hematological parameter were assessed using SCIL Vet ABC Plus instrument.
Tissue blocks and slides of liver, kidneys and lungs were prepared by JHU histology core and staining was also carried out by the Core. Briefly, tissue samples were fixed in formalin for 24 h and rinsed with PBS and stored in PBS. These tissue samples were dehydrated through graded ethanol series, cleared in xylene, and embedded in paraffin. Sections (4-5 µm thick) were cut using a microtome and mounted on glass slides. The slides were deparaffinized in xylene, rehydrated through graded ethanol to distilled water, and stained with hematoxylin for 5 min. After rinsing in running water, sections were differentiated in 1% acid alcohol, blued in ammonia water, and counterstained with eosin for 1-2 min. Slides were dehydrated, cleared in xylene, and mounted with a coverslip using a permanent mounting medium. Images were captured under a brightfield microscope to evaluate tissue structure and histopathological features.

SMILES: CC(C)C[C@@H]1NC(=O)[C@@H]2CSCCC(=O)N3CN(CN(C3)C(=O)CCSC[C@H](NC(=O)[C@H](CC(=O)O)NC(=O)[C@H](CCCCNC(=N)N)NC(=O)[C@H](C)NC(=O)CNC(=O)CN(C)C(=O)CN(C)C(=O)CN(C)C(=O)[C@H](CCCNC(=N)N)NC(=O)CNC(=O)CCOCCOCCNC(=O)CN3CCN(CC(=O)O)CCN(CC(=O)O)CC3)C(=O)N3C[C@H](O)C[C@H]3C(=O)N[C@@H](CC(C)C)C(=O)N[C@@H](C(C)C)C(=O)N[C@@H](CC(N)=O)C(=O)N3CCC[C@H]3C(=O)N[C@@H](CC(C)C)C(=O)N2)C(=O)CCSC[C@@H](C(N)=O)NC(=O)[C@H](CCCCNC(=N)N)NC(=O)[C@H](Cc2c[nH]c3ccccc23)NC(=O)[C@@H](CC(=O)O)NC(=O)[C@@H]2CCCN2C(=O)[C@H](Cc2c[nH]cn2)NC1=O [AJ201] ({NOTA-PEG2}-GR[Sar][Sar][Sar]GA[hArg]DC[Hyp]LVNPLCLHP[dD]W[hArg]C-NH2; linker 10-17-24 via TATA)
koff (mouse EphA2): 0.00302 s⁻¹
kon (mouse EphA2): 5.03e+06 M⁻¹ s⁻¹
koff (human EphA2): 0.00133 s⁻¹
kon (human EphA2): 7.6e+06 M⁻¹ s⁻¹

tissue uptake at 1 h (Ex vivo biodistribution [1]; Blood uptake): 0.56 ± 0.14 %ID/g
tissue uptake at 1 h (Ex vivo biodistribution [1]; Femur uptake): 0.29 ± 0.07 %ID/g
tissue uptake at 1 h (Ex vivo biodistribution [1]; Heart uptake): 0.24 ± 0.05 %ID/g
tissue uptake at 1 h (Ex vivo biodistribution [1]; Kidney uptake): 59.9 ± 16.4 %ID/g
tissue uptake at 1 h (Ex vivo biodistribution [1]; Liver uptake): 0.26 ± 0.05 %ID/g
tissue uptake at 1 h (Ex vivo biodistribution [1]; Lung uptake): 0.57 ± 0.13 %ID/g
tissue uptake at 1 h (Ex vivo biodistribution [1]; Muscle uptake): 0.19 ± 0.04 %ID/g
tissue uptake at 1 h (Ex vivo biodistribution [1]; Pancreas uptake): 0.24 ± 0.06 %ID/g
tissue uptake at 1 h (Ex vivo biodistribution [1]; Small intestine uptake): 0.64 ± 0.47 %ID/g
tissue uptake at 1 h (Ex vivo biodistribution [1]; Spleen uptake): 0.35 ± 0.07 %ID/g
tissue uptake at 1 h (Ex vivo biodistribution [1]; Stomach uptake): 0.17 ± 0.07 %ID/g
tissue uptake at 1 h (Ex vivo biodistribution [1]; Tumor uptake): 1.06 ± 0.25 %ID/g
tissue to tissue ratio at 1 h (Ex vivo biodistribution [1]; Tumor/Muscle ratio): 5.61 ± 0.69
tissue to tissue ratio at 1 h (Ex vivo biodistribution [1]; Tumor/Pancreas ratio): 4.65 ± 1.46
tissue to tissue ratio at 1 h (Ex vivo biodistribution [1]; Tumor/blood ratio): 1.94 ± 0.44
tissue uptake at 1 h (Ex vivo biodistribution [2]; Blood uptake): 0.96 ± 0.33 %ID/g
tissue uptake at 1 h (Ex vivo biodistribution [2]; Femur uptake): 0.38 ± 0.08 %ID/g
tissue uptake at 1 h (Ex vivo biodistribution [2]; Heart uptake): 0.84 ± 0.14 %ID/g
tissue uptake at 1 h (Ex vivo biodistribution [2]; Kidney uptake): 24.4 ± 9.98 %ID/g
tissue uptake at 1 h (Ex vivo biodistribution [2]; Liver uptake): 0.34 ± 0.06 %ID/g
tissue uptake at 1 h (Ex vivo biodistribution [2]; Lung uptake): 0.39 ± 0.08 %ID/g
tissue uptake at 1 h (Ex vivo biodistribution [2]; Muscle uptake): 0.4 ± 0.16 %ID/g
tissue uptake at 1 h (Ex vivo biodistribution [2]; Pancreas uptake): 0.3 ± 0.08 %ID/g
tissue uptake at 1 h (Ex vivo biodistribution [2]; Small intestine uptake): 0.62 ± 0.22 %ID/g
tissue uptake at 1 h (Ex vivo biodistribution [2]; Spleen uptake): 0.74 ± 0.22 %ID/g
tissue uptake at 1 h (Ex vivo biodistribution [2]; Stomach uptake): 0.09 ± 0.03 %ID/g
tissue uptake at 1 h (Ex vivo biodistribution [2]; Tumor uptake): 3.72 ± 0.66 %ID/g
tissue to tissue ratio at 1 h (Ex vivo biodistribution [2]; Tumor/Muscle ratio): 10.3 ± 4.01
tissue to tissue ratio at 1 h (Ex vivo biodistribution [2]; Tumor/Pancreas ratio): 13.1 ± 4.11
tissue to tissue ratio at 1 h (Ex vivo biodistribution [2]; Tumor/blood ratio): 4.09 ± 0.97
SMILES: CC(C)C[C@@H]1NC(=O)[C@@H]2CSCCC(=O)N3CN(CN(C3)C(=O)CCSC[C@H](NC(=O)[C@H](CC(=O)O)NC(=O)[C@H](CCCCNC(=N)N)NC(=O)[C@H](C)NC(=O)CNC(=O)CNC(=O)CNC(=O)CNC(=O)CNC(=O)CN3CCN(CC(=O)O)CCN(CC(=O)O)CCN(CC(=O)O)CC3)C(=O)N3C[C@H](O)C[C@H]3C(=O)N[C@@H](CC(C)C)C(=O)N[C@@H](C(C)C)C(=O)N[C@@H](CC(N)=O)C(=O)N3CCC[C@H]3C(=O)N[C@@H](CC(C)C)C(=O)N2)C(=O)CCSC[C@@H](C(N)=O)NC(=O)[C@H](CCCCNC(=N)N)NC(=O)[C@H](Cc2c[nH]c3ccccc23)NC(=O)[C@@H](CC(=O)O)NC(=O)[C@@H]2CCCN2C(=O)[C@H](Cc2c[nH]cn2)NC1=O [[^68Ga]AJ210, metal not drawn] ({DOTA}-GGGGGA[hArg]DC[Hyp]LVNPLCLHP[dD]W[hArg]C-NH2; linker 9-16-23 via TATA)

H&E histology of kidney [3]: no significant pathological changes
H&E histology of liver [3]: no significant pathological changes
H&E histology of lungs [3]: no significant pathological changes
H&E staining of lung, liver and kidney sections [3]: no visible histological abnormalities
SMILES: CC(C)C[C@@H]1NC(=O)[C@@H]2CSCCC(=O)N3CN(CN(C3)C(=O)CCSC[C@H](NC(=O)[C@H](CC(=O)O)NC(=O)[C@H](CCCCNC(=N)N)NC(=O)[C@H](C)NC(=O)CNC(=O)CNC(=O)CNC(=O)CNC(=O)CNC(=O)CN3CCN(CC(=O)O)CCN(CC(=O)O)CCN(CC(=O)O)CC3)C(=O)N3C[C@H](O)C[C@H]3C(=O)N[C@@H](CC(C)C)C(=O)N[C@@H](C(C)C)C(=O)N[C@@H](CC(N)=O)C(=O)N3CCC[C@H]3C(=O)N[C@@H](CC(C)C)C(=O)N2)C(=O)CCSC[C@@H](C(N)=O)NC(=O)[C@H](CCCCNC(=N)N)NC(=O)[C@H](Cc2c[nH]c3ccccc23)NC(=O)[C@@H](CC(=O)O)NC(=O)[C@@H]2CCCN2C(=O)[C@H](Cc2c[nH]cn2)NC1=O [[^225Ac]AJ210, metal not drawn] ({DOTA}-GGGGGA[hArg]DC[Hyp]LVNPLCLHP[dD]W[hArg]C-NH2; linker 9-16-23 via TATA)
